ChEMBL document CHEMBL1134910 (Bioorg Med Chem Lett, 2002)

Columns and labels:
[1] = molecular target: Adenosine receptor A2a (Sus scrofa)
Adenosine receptor A2a = Adenosine receptor A2a (Rattus norvegicus, UniProt P30543)
Description: Receptor binding affinity for the adenosine A2A receptor was determined using [3H]ZM-241385 as a radioligand in rat

Adenosine receptor A3 = molecular target: T1, Adenosine receptor A3 (Homo sapiens, UniProt P0DMS8); test: Binding affinity for Adenosine A3A receptor
T1 sequence (P0DMS8 whole entry): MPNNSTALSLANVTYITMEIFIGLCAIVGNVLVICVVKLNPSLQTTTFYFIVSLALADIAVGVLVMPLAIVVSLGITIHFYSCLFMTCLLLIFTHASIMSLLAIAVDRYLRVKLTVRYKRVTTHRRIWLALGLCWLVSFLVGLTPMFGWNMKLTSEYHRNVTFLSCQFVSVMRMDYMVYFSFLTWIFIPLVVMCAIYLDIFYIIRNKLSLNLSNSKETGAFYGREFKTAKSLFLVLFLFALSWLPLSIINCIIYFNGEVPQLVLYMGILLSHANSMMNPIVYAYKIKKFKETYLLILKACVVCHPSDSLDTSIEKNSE

Adenosine receptor A1 = molecular target: T2, Adenosine receptor A1 (Homo sapiens, UniProt P30542); test: Binding affinity for adenosine (ADO) A1 receptor in CHO cells; type: cell-based
T2 sequence (P30542 whole entry): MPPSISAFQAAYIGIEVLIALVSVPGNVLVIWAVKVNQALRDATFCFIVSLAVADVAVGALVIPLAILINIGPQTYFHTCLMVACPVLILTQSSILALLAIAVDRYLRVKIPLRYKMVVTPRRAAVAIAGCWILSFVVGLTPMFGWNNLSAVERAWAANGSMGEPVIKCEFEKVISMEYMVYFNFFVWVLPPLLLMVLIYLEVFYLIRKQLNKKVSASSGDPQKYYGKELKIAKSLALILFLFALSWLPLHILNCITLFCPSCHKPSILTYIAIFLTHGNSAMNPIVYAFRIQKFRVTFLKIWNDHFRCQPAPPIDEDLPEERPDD

Chain of Adenosine receptor A2a (P30543 whole entry): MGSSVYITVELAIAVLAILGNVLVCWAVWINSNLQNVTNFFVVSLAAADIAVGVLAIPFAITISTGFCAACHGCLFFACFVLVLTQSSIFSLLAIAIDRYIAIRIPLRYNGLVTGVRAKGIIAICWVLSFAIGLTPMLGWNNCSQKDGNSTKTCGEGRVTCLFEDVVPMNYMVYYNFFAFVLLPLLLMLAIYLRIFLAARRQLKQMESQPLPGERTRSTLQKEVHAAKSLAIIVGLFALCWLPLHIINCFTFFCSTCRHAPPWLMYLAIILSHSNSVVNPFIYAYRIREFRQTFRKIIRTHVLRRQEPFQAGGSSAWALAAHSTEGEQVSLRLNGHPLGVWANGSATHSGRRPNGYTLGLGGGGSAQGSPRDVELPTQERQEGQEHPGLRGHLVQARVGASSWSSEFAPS

Row | Ki [1] | Ki (Adenosine receptor A2a) | Ki (Adenosine receptor A3) | Ki (Adenosine receptor A1) | Structure (SMILES)
1 | 6680 nM | 2620 nM | – | – | Nc1nc(-c2cnn(CCCC3CCCCC3)c2)nc2c1ncn2[C@@H]1O[C@H](CO)[C@@H](O)[C@H]1O
2 | 880 nM | 220 nM | – | – | Nc1nc(-c2cnn(CC3CCCCC3)c2)nc2c1ncn2[C@@H]1O[C@H](CO)[C@@H](O)[C@H]1O
3 | > 100000 nM | – | – | – | Cc1cc(-c2ccccc2)nn1-c1nc(N)c2ncn([C@@H]3O[C@H](CO)[C@@H](O)[C@H]3O)c2n1
4 | > 100000 nM | > 100000 nM | – | – | CNC(=O)Cn1cc(-c2nc(N)c3ncn([C@@H]4O[C@H](CO)[C@@H](O)[C@H]4O)c3n2)cn1
5 | 490 nM | 190 nM | – | – | Cc1ccc(-c2cnn(-c3nc(N)c4ncn([C@@H]5O[C@H](CO)[C@@H](O)[C@H]5O)c4n3)c2)cc1
6 | > 100000 nM | > 100000 nM | – | – | Cn1cc(-c2nc(N)c3ncn([C@@H]4O[C@H](CO)[C@@H](O)[C@H]4O)c3n2)cn1
7 | > 100000 nM | 21000 nM | – | – | CN(C)C(=O)Cn1cc(-c2nc(N)c3ncn([C@@H]4O[C@H](CO)[C@@H](O)[C@H]4O)c3n2)cn1
8 | > 100000 nM | > 100000 nM | – | – | CCNC(=O)Cn1cc(-c2nc(N)c3ncn([C@@H]4O[C@H](CO)[C@@H](O)[C@H]4O)c3n2)cn1
9 | – | – | > 10000 nM | > 16500 nM | CNC(=O)c1cnn(-c2nc(N)c3ncn([C@@H]4O[C@H](CO)[C@@H](O)[C@H]4O)c3n2)c1 [REGADENOSON ANHYDROUS]
10 | 440 nM | 140 nM | – | – | CN(C)C(=O)c1cnn(-c2nc(N)c3ncn([C@@H]4O[C@H](CO)[C@@H](O)[C@H]4O)c3n2)c1
11 | 1280 nM | 60 nM | – | – | CCOC(=O)c1cnn(-c2nc(N)c3ncn([C@@H]4O[C@H](CO)[C@@H](O)[C@H]4O)c3n2)c1
12 | 2140 nM | 2590 nM | > 10000 nM | – | CCCCCn1cc(-c2nc(N)c3ncn([C@@H]4O[C@H](CO)[C@@H](O)[C@H]4O)c3n2)cn1
13 | – | 66 nM | – | – | Nc1nc(N/N=C\C2CCCCC2)nc2c1ncn2[C@@H]1O[C@H](CO)[C@@H](O)[C@H]1O
14 | 2420 nM | 5290 nM | – | – | CC(C)(C)c1ccc(Cn2cc(-c3nc(N)c4ncn([C@@H]5O[C@H](CO)[C@@H](O)[C@H]5O)c4n3)cn2)cc1
15 | 1350 nM | 350 nM | – | – | NC(=O)c1cnn(-c2nc(N)c3ncn([C@@H]4O[C@H](CO)[C@@H](O)[C@H]4O)c3n2)c1
16 | 380 nM | 60 nM | – | – | CCNC(=O)c1cnn(-c2nc(N)c3ncn([C@@H]4O[C@H](CO)[C@@H](O)[C@H]4O)c3n2)c1
17 | 120 nM | 50 nM | – | – | CCCNC(=O)c1cnn(-c2nc(N)c3ncn([C@@H]4O[C@H](CO)[C@@H](O)[C@H]4O)c3n2)c1
18 | > 100000 nM | – | – | – | CCCCc1c(C)nn(-c2nc(N)c3ncn([C@@H]4O[C@H](CO)[C@@H](O)[C@H]4O)c3n2)c1C
19 | > 100000 nM | – | – | – | CCCc1c(C)nn(-c2nc(N)c3ncn([C@@H]4O[C@H](CO)[C@@H](O)[C@H]4O)c3n2)c1C
20 | > 100000 nM | > 100000 nM | – | – | Nc1nc(-c2cnn(CC(=O)O)c2)nc2c1ncn2[C@@H]1O[C@H](CO)[C@@H](O)[C@H]1O
21 | > 100000 nM | > 100000 nM | – | – | Nc1nc(-c2cn[nH]c2)nc2c1ncn2[C@@H]1O[C@H](CO)[C@@H](O)[C@H]1O
22 | > 100000 nM | 6110 nM | – | – | CCCCCCCCCCn1cc(-c2nc(N)c3ncn([C@@H]4O[C@H](CO)[C@@H](O)[C@H]4O)c3n2)cn1
23 | 5900 nM | 2260 nM | – | – | Nc1nc(-c2cnn(CCc3ccccc3)c2)nc2c1ncn2[C@@H]1O[C@H](CO)[C@@H](O)[C@H]1O
24 | 560 nM | 190 nM | – | – | COc1ccc(-c2cnn(-c3nc(N)c4ncn([C@@H]5O[C@H](CO)[C@@H](O)[C@H]5O)c4n3)c2)cc1
25 | 1710 nM | 470 nM | – | – | C=CCCCn1cc(-c2nc(N)c3ncn([C@@H]4O[C@H](CO)[C@@H](O)[C@H]4O)c3n2)cn1

Row | Structure (SMILES) | Ki [1] | Ki (Adenosine receptor A2a) | Ki (Adenosine receptor A3) | Ki (Adenosine receptor A1)
26 | Nc1nc(-c2cnn(Cc3ccccc3)c2)nc2c1ncn2[C@@H]1O[C@H](CO)[C@@H](O)[C@H]1O | 1580 nM | 1610 nM | – | –
